Measured values reported in US4241065A, “Fluoro analogs of hydrocodone and oxycodone useful as analgesics, narcotic antagonists or both” (priority 1979, dated 1980).
Like-named read-outs stand apart in the source and are kept apart here.

Tests used:
in vivo = assay: in vivo; set-up: species or system mice (CF1 S female); conditions: sc, mouse
[1] = tested on: pain induced by phenylquinone (writhing syndrome); assay: Phenylquinone writhing test (PQW), analgesic activity in mice; format: in vivo, mice (fasted female white mice)
Source text: Exp. Biol. Med. 95, 729 (1957). […] Rev. 11 115-145 (1947).

[2] = tested on: morphine-induced Straub tail in mice; assay: Narcotic antagonist (anti-Straub tail) test in mice; format: in vivo; conditions: ip, 10 min; mouse, compound intraperitoneal, 10 min later 53 mg/kg morphine sulfate s.c.; compounds of the invention as hydrochloride salt; 135 mg/kg or higher = inactive; read-out: Antistraub Tail ED50 (Mouse ED50 Values)
[3] = tested on: Straub tail induced by morphine sulfate; assay: Modified Straub Tail Antagonism test; format: in vivo, mice; conditions: Mus musculus, sc; test drug subcutaneous in 1% methyl cellulose with 1.25% Tween 80; morphine sulfate 35 mg/kg i.p. 5 min later; observed after 15 min for 5 min; read-out: ED 50 (modified Straub Tail Antagonism)
Method: The Straub Tail Antagonism test was modified by giving test drugs (in 1% methyl cellulose with 1.25% "Tween 80") subcutaneously, followed by intraperitoneal injection of morphine sulfate (at 35 mg/kg) 5 minutes after the test drug. […] ED 50's were calculated as above with a 95% confidence limit as described by Litchfield, J. Pharmacol. Exp. Ther. 96, 99 (1949).

[4] = subcutaneous, within 25 minutes after dosing, compounds of the invention as hydrochloride salt, 135 mg/kg or higher = inactive, read-out: Straub Tail ED50 (Mouse ED50 Values)
[5] = 0.5 h, mouse, oral, observed for 10 min commencing 30 min after administration, compounds of the invention as hydrochloride salt, 135 mg/kg or higher = inactive, read-out: PQW ED50 (Mouse ED50 Values, POW)

Compound	ED50 at 25 min (in vivo; [4])	ED50 [1, 5]	ED50 [2]	other results
COc1ccc2c3c1OC1C(F)C=CC4C(C2)N(C)CCC341 (stereo not drawn) [Ayer 3,137,701, reference compound]	63 mg/kg	–	–	–
COc1ccc2c3c1O[C@H]1[C@@H](O)C=C[C@H]4[C@@H](C2)N(C)CC[C@@]341 [Codeine PO4, reference compound]	202 mg/kg	–	–	–
COc1ccc2c3c1O[C@H]1C(F)=CC[C@H]4[C@@H](C2)N(C)CC[C@]314.Cl [Compound 2, 17-Methyl-6,7-didehydro-4,5-epoxy-6-fluoro-3-methoxymorphinan Hydrochloride]	–	8.5 mg/kg	–	–
COc1ccc2c3c1O[C@H]1C(F)(F)CC[C@H]4[C@@H](C2)N(C)CC[C@@]341.Cl [Compound 4, 17-Methyl-4,5-epoxy-6,6-difluoro-3-methoxymorphinan Hydrochloride]	10 mg/kg	–	> 81000 µg/kg	–
CN1CC[C@]23c4c5ccc(O)c4OC2C(F)=CC[C@H]3[C@H]1C5.Cl (stereo partly drawn) [Compound 6, 17-Methyl-6,7-didehydro-4,5-epoxy-6-fluoro-3-hydroxymorphinan Hydrochloride]	17 mg/kg	8 mg/kg	–	–
COc1ccc2c3c1OC1C(F)(F)CC[C@H]4[C@@H](C2)N(CC2CCC2)CC[C@]314.Cl (stereo partly drawn) [Compound 10, 17-Cyclobutylmethyl-4,5-epoxy-6,6-difluoro-3-methoxymorphinan Hydrochloride]	> 81 mg/kg	–	–	–
COc1ccc2c3c1OC1C(F)(F)CC[C@H]4[C@@H](C2)N(CC2CC2)CC[C@]314 (stereo partly drawn) [Compound 15, 17-Cyclopropylmethyl-4,5-epoxy-6,6-difluoro-3-methoxymorphinan]	> 54 mg/kg	–	–	–
COc1ccc2c3c1OC1C(F)=CC[C@H]4[C@@H](C2)N(CC2CC2)CC[C@]314 (stereo partly drawn) [Compound 16, 17-Cyclopropylmethyl-6,7-didehydro-4,5-epoxy-6-fluoro-3-methoxymorphinan]	> 135 mg/kg	–	–	–
Oc1ccc2c3c1OC1C(F)(F)CC[C@H]4[C@@H](C2)N(CC2CC2)CC[C@]314 (stereo partly drawn) [Compound 17, 17-Cyclopropylmethyl-4,5-epoxy-6,6-difluoro-3-hydroxymorphinan]	> 54 mg/kg	–	3 µg/kg	ED50 [3]: 0.0033 mg/kg; ED50 ([1]; 0.5 h, mouse, oral, * peak time value (maximum activity within 30 min of administration), compounds of the invention as hydrochloride salt, read-out: PQW ED50 (Mouse ED50 Values, POW), peak time value): 2.6 mg/kg
Cl.Oc1ccc2c3c1OC1C(F)=CC[C@H]4[C@@H](C2)N(CC2CC2)CC[C@]314 (stereo partly drawn) [Compound 18, 17-Cyclopropylmethyl-6,7-didehydro-4,5-epoxy-6-fluoro-3-hydroxymorphinan Hydrochloride]	> 135 mg/kg	7.2 mg/kg	180 µg/kg	–
COc1ccc2c3c1O[C@H]1C(F)(F)CC[C@@]4(O)[C@@H](C2)N(CC2CCC2)CC[C@]314.Cl [Compound 26, 17-Cyclobutylmethyl-4,5α-epoxy-6,6-difluoro-14β-hydroxy-3-methoxymorphinan Hydrochloride]	> 135 mg/kg	–	–	–
CC(=O)Oc1ccc2c3c1O[C@H]1C(F)=CC[C@H]4[C@@H](C2)N(CC2CC2)CC[C@]314 [Compound 29, 17-Cyclopropylmethyl-6,7-didehydro-4,5α-epoxy-6-fluoro-3-acetoxymorphinan]	> 18 mg/kg	1.3 mg/kg	2.2 µg/kg	ED50 ([1]; Mus musculus, sc, 0.25 h, subcutaneous, fifteen minutes after injection, read-out: ED50 (analgesic, subcutaneous injection)): 0.0016 mg/kg
CC(=O)Oc1ccc2c3c1O[C@H]1C(F)(F)CC[C@H]4[C@@H](C2)N(CC2CC2)CC[C@@]341 [Compound 30, 17-Cyclopropylmethyl-4,5α-epoxy-6,6-difluoro-3-acetoxymorphinan]	> 18 mg/kg	2.2 mg/kg	3.1 µg/kg	–
CN1CC[C@]23c4c5ccc(O)c4O[C@H]2[C@@H](O)C=C[C@H]3[C@H]1C5 [Morphine SO4, reference compound]	–	–	–	ED50 at 25 min (in vivo; 135 mg/kg): 48 mg/kg
CC(C)=CCN1CCC2(C)c3cc(O)ccc3CC1C2C (stereo not drawn) [Pentazocine, reference compound]	–	–	–	ED50 [3]: 1.9 mg/kg
